This note sets out measurements from PubChem BioAssay AID1259407 (Chemical Carcinogenesis Research Information System (CCRIS), 2018).

Molecules are shown by their SMILES. The source made the active and inactive calls. No rule for the calls is given here.

The subject of this data set is CCRIS mutagenicity, Ames/micronucleus/aberration tests. Put plainly: CCRIS mutagenicity studies.
Setting [1] is: Test System: AMES SALMONELLA TYPHIMURIUM, Strain/Indicator: TA98, Metabolic Activation: NONE, Method: PREINCUBATION
Setting [2] is: Test System: AMES SALMONELLA TYPHIMURIUM, Strain/Indicator: TA100, Metabolic Activation: NONE, Method: PREINCUBATION
The mark [3] stands for this setting: Test System: AMES SALMONELLA TYPHIMURIUM, Strain/Indicator: TA1535, Metabolic Activation: NONE, Method: PREINCUBATION
Where [4] appears, read: Test System: AMES SALMONELLA TYPHIMURIUM, Strain/Indicator: TA1537, Metabolic Activation: NONE, Method: PREINCUBATION
The mark [5] stands for this setting: Test System: AMES SALMONELLA TYPHIMURIUM, Strain/Indicator: TA100, Metabolic Activation: NONE, Method: STANDARD PLATE.

As for `Clc1ccc(Cl)c(Cl)c1Cl`, the mutagenic call reads like this: (End Point: IN VITRO CHROMOSOMAL ABERRATIONS, Test System: CHO-LB CELLS, Metabolic Activation: NONE) “inactive; negative”; (End Point: IN VITRO CHROMOSOMAL ABERRATIONS, Test System: CHO-LB CELLS, Metabolic Activation: RAT, LIVER, S-9, AROCLOR 1254) “inactive; negative”; (Test System: AMES SALMONELLA TYPHIMURIUM, Strain/Indicator: TA98, Metabolic Activation: HAMSTER, LIVER, S-9, AROCLOR 1254, Method: PREINCUBATION) “inactive; negative”; under setting [1], “inactive; negative”; (Test System: AMES SALMONELLA TYPHIMURIUM, Strain/Indicator: TA98, Metabolic Activation: RAT, LIVER, S-9, AROCLOR 1254, Method: PREINCUBATION) “inactive; negative”; (Test System: AMES SALMONELLA TYPHIMURIUM, Strain/Indicator: TA100, Metabolic Activation: HAMSTER, LIVER, S-9, AROCLOR 1254, Method: PREINCUBATION) “inactive; negative”. Further, the mutagenic call is “inactive; negative” under setting [2]; “inactive; negative” (Test System: AMES SALMONELLA TYPHIMURIUM, Strain/Indicator: TA100, Metabolic Activation: RAT, LIVER, S-9, AROCLOR 1254, Method: PREINCUBATION); “inactive; negative” (Test System: AMES SALMONELLA TYPHIMURIUM, Strain/Indicator: TA1535, Metabolic Activation: HAMSTER, LIVER, S-9, AROCLOR 1254, Method: PREINCUBATION); “inactive; negative” under setting [3]; “inactive; negative” (Test System: AMES SALMONELLA TYPHIMURIUM, Strain/Indicator: TA1535, Metabolic Activation: RAT, LIVER, S-9, AROCLOR 1254, Method: PREINCUBATION); “inactive; negative” (Test System: AMES SALMONELLA TYPHIMURIUM, Strain/Indicator: TA1537, Metabolic Activation: HAMSTER, LIVER, S-9, AROCLOR 1254, Method: PREINCUBATION). Further, the mutagenic call under setting [4] was “inactive; negative” and the mutagenic call (Test System: AMES SALMONELLA TYPHIMURIUM, Strain/Indicator: TA1537, Metabolic Activation: RAT, LIVER, S-9, AROCLOR 1254, Method: PREINCUBATION) was “inactive; negative”.
As for `CC(=O)Nc1cc2c(cc1O)-c1ccccc1C2`, the mutagenic call (Test System: AMES SALMONELLA TYPHIMURIUM, Strain/Indicator: TA98, Metabolic Activation: RAT, LIVER, S-9, AROCLOR 1254, Method: STANDARD PLATE) was “inactive; negative”.
For `[O]=[Ce]=[O]`, the mutagenic call is, setting by setting: under setting [1], “inactive; negative”; (Test System: AMES SALMONELLA TYPHIMURIUM, Strain/Indicator: TA98, Metabolic Activation: RAT, LIVER, S-9, KC 500, Method: PREINCUBATION) “inactive; negative”; under setting [2], “inactive; negative”; (Test System: AMES SALMONELLA TYPHIMURIUM, Strain/Indicator: TA100, Metabolic Activation: RAT, LIVER, S-9, KC 500, Method: PREINCUBATION) “inactive; negative”; under setting [3], “inactive; negative”; (Test System: AMES SALMONELLA TYPHIMURIUM, Strain/Indicator: TA1535, Metabolic Activation: RAT, LIVER, S-9, KC 500, Method: PREINCUBATION) “inactive; negative”. In addition, the mutagenic call is “inactive; negative” under setting [4]; “inactive; negative” (Test System: AMES SALMONELLA TYPHIMURIUM, Strain/Indicator: TA1537, Metabolic Activation: RAT, LIVER, S-9, KC 500, Method: PREINCUBATION); “inactive; negative” (Test System: AMES SALMONELLA TYPHIMURIUM, Strain/Indicator: TA1538, Metabolic Activation: NONE, Method: PREINCUBATION); “inactive; negative” (Test System: AMES SALMONELLA TYPHIMURIUM, Strain/Indicator: TA1538, Metabolic Activation: RAT, LIVER, S-9, KC 500, Method: PREINCUBATION); “inactive; negative” (Test System: E. COLI, Strain/Indicator: WP2 UVRA, Metabolic Activation: NONE, Method: PREINCUBATION); “inactive; negative” (Test System: E. COLI, Strain/Indicator: WP2 UVRA, Metabolic Activation: RAT, LIVER, S-9, KC 500, Method: PREINCUBATION).
In the case of `O=C(NCc1ccccc1)C(Br)c1ccccc1` (stereo not given), the mutagenic call by setting is: (Test System: AMES SALMONELLA TYPHIMURIUM, Strain/Indicator: TA100, Metabolic Activation: MOUSE, LIVER, S-9, AROCLOR 1254, Method: STANDARD PLATE) “inactive; negative”; under setting [5], “inactive; negative”.
In the case of `CC(=O)N(O)CCCCCNC(=O)CCC(=O)N(O)CCCCCNC(=O)CCC(=O)N(O)CCCCCN`, the mutagenic call was “active; positive. reevaluation of results: positive” (Test System: MOUSE LYMPHOMA, Strain/Indicator: L5178Y (TK+/TK-), Metabolic Activation: NONE, Method: SUSPENSION/PLATE) and “active; positive. reevaluation of results: positive” (Test System: MOUSE LYMPHOMA, Strain/Indicator: L5178Y (TK+/TK-), Metabolic Activation: RAT, LIVER, S-9, AROCLOR 1254, Method: SUSPENSION/PLATE).
For `O=[N+]([O-])c1ccc(-c2cscn2)o1`, the mutagenic call (Test System: AMES SALMONELLA TYPHIMURIUM, Strain/Indicator: TA100, Metabolic Activation: RAT, LIVER, S-9, KC500 OR PHENOBARBITAL, Method: LIQUID SUSPENSION) is “active; positive”.
Consider `CC1(C)CC2=C(C=O)[C@@]3(C=O)C[C@@]3(C)[C@@H](O)[C@@H]2C1`, for which the mutagenic call runs as follows: (Test System: AMES SALMONELLA TYPHIMURIUM, Strain/Indicator: TA98, Metabolic Activation: NONE, Method: STANDARD PLATE) “active; positive”; under setting [5], “active; positive”; (Test System: CHINESE HAMSTER V-79, Strain/Indicator: V-79/6-THIOGUANINE (HGPRT), Metabolic Activation: NONE) “inactive; negative”.
